Assays:
MOLM-13 cells = assay: Cell proliferation assay (Cell Titer-Glo, 72 h); format: cell-based; details: Homo sapiens, 72 h incubation, * = cytostatic 50%
Method: MOLM-13 cell line was purchased from the Leibniz Institute DSMZ (ACC 554). The cells were cultured according to recommendations in RPMI 1640 cell culture media with 20% FBS (DSMZ). Exponentially growing MOLM-13 cells were plated at 1250 cells per well in Corning 8804BC white 384-well assay plates and incubated overnight at 37° C. in a humidified 5% CO2 incubator. Compounds were transferred to the assay plate from a dose-response plate using a Pintool on a Biomek FXP Laboratory Automation Workstation (Beckman Coulter). Cytotoxicity was determined following 72 hours of incubation using Promega Cell Titer Glo reagent according to the manufacturer's recommendation. Luminescence was measured on an Envision plate reader (Perkin-Elmer).
Compounds were screened in human cancer cell lines and each cell line was cultured in the complete medium recommended by the vendor and seeded in Corning 8804BC white 384-well assay plates at density of 1250 cells per well for MOLM-13 cells. After overnight incubation at 37° C. in a humidified 5% CO2 incubator, cells were treated with compounds in dose-response format using a Pintool on a Biomek FXP Laboratory Automation Workstation (Beckman Coulter). After 72h incubation, cell proliferation was assessed using Cell Titer-Glo (CTG) luminescent cell viability assay (Promega) according to the manufacturer's instruction. Luminescence signal was measured using an Envision plate reader (Perkin-Elmer).

6XHis-CRBN-DDB1 protein = 6XHis-CRBN-DDB1 protein (Homo sapiens (Human), UniProt Q96SW2); assay: CRBN fluorescence polarization assay (competitive, Cy5-O-Len probe); format: binding; details: 6XHis-CRBN-DDB1 200 nM, Cy5-O-Len probe 30 nM, 1 hour; mean of three determinations; read-out: CRBN FP (IC50)
Method: In this competitive fluorescent polarization assay Cy5 conjugated lenalidomide analog (Cy5—O-Len)^1 was used as a fluorescent probe. 6XHis-CRBN-DDB1 protein (200 nM) and Cy5—O-Len probe (30 nM) were combined in 20 mM HEPES pH 7, 150 mM NaCl, 0.005% Tween-20 assay buffer. 20 μL of this assay cocktail was dispensed into wells of Corning 3821 black 384-well plates. Compounds were transferred to the assay plate from a dose-response plate using a Pintool on a Biomek FXP Laboratory Automation Workstation (Beckman Coulter). The plates were incubated in the dark for 1 hour at room temperature and then read on an Envision plate reader (PerkinElmer, Massachusetts, USA). IC50 values were determined using a proprietary software RISE (Robust Investigation of Screening Experiments), developed in house on the Pipeline Pilot platform (Biovia, v. 17.2.0). Data represent the mean of three independent determinations.

Structure (SMILES)	EC50 (MOLM-13 cells) [µM]	IC50 (6XHis-CRBN-DDB1 protein) [µM]
O=C1CCC(N2Cc3c(CNC(=O)c4ccc(-c5ccc(Cl)cc5)o4)cccc3C2=O)C(=O)N1 (centres unmarked) [Compound 44, 5-(4-chlorophenyl)-N-((2-(2,6-dioxopiperidin-3-yl)-1-oxoisoindolin-4-yl)methyl)furan-2-carboxamide]	< 1	< 1
O=C1CCC(N2Cc3c(CNC(=O)c4cccc(OC(F)(F)F)c4)cccc3C2=O)C(=O)N1 (centres unmarked) [Compound 20, N-((2-(2,6-dioxopiperidin-3-yl)-1-oxoisoindolin-4-yl)methyl)-3-(trifluoromethoxy)benzamide]	< 1	1 to 10
O=C1CCC(N2Cc3c(CNC(=O)c4cccc5[nH]ccc45)cccc3C2=O)C(=O)N1 (centres unmarked) [Compound 39, N-((2-(2,6-dioxopiperidin-3-yl)-1-oxoisoindolin-4-yl)methyl)-1H-indole-4-carboxamide]	> 10	< 1
O=C1CCC(N2Cc3c(CNC(=O)c4ccc(Cl)c(F)c4)cccc3C2=O)C(=O)N1 (centres unmarked) [Compound 19, 4-chloro-N-((2-(2,6-dioxopiperidin-3-yl)-1-oxoisoindolin-4-yl)methyl)-3-fluorobenzamide]	< 1	1 to 10
O=C1CCC(N2Cc3c(CNC(=O)c4ccc(F)c(Cl)c4)cccc3C2=O)C(=O)N1 (centres unmarked) [Compound 15, 3-chloro-N-((2-(2,6-dioxopiperidin-3-yl)-1-oxoisoindolin-4-yl)methyl)-4-fluorobenzamide]	< 1	< 1
O=C1CCC(N2Cc3c(CNC(=O)c4ccc(C(F)(F)F)cc4)cccc3C2=O)C(=O)N1 (centres unmarked) [Compound 13, N-((2-(2,6-dioxopiperidin-3-yl)-1-oxoisoindolin-4-yl)methyl)-4-(trifluoromethyl)benzamide]	< 1	1 to 10
O=C1CCC(N2Cc3c(CNC(=O)c4ccc(Br)cc4)cccc3C2=O)C(=O)N1 (centres unmarked) [Compound 18, 4-bromo-N-((2-(2,6-dioxopiperidin-3-yl)-1-oxoisoindolin-4-yl)methyl)benzamide]	< 1	–
O=C(Cc1ccccc1Br)NCc1cccc2c1CN(C1CCC(=O)NC1=O)C2=O (centres unmarked) [Compound 41, 2-(2-bromophenyl)-N-((2-(2,6-dioxopiperidin-3-yl)-1-oxoisoindolin-4-yl)methyl)acetamide]	> 10	1 to 10
O=C1CCC(N2Cc3c(CNC(=O)c4cccc(Cl)c4)cccc3C2=O)C(=O)N1 (centres unmarked) [Compound 3, 3-chloro-N-((2-(2,6-dioxopiperidin-3-yl)-1-oxoisoindolin-4-yl)methyl)benzamide]	< 1	< 1
O=C1CCC(N2Cc3c(CNC(=O)c4ccccc4C(F)(F)F)cccc3C2=O)C(=O)N1 (centres unmarked) [Compound 4, N-((2-(2,6-dioxopiperidin-3-yl)-1-oxoisoindolin-4-yl)methyl)-2-(trifluoromethyl)benzamide]	> 10	1 to 10
O=C1CCC(N2Cc3c(CNC(=O)c4ccccc4Nc4ccccc4)cccc3C2=O)C(=O)N1 (centres unmarked) [Compound 45, N-((2-(2,6-dioxopiperidin-3-yl)-1-oxoisoindolin-4-yl)methyl)-2-(phenylamino)benzamide]	< 1	1 to 10
O=C1CCC(N2Cc3c(CNC(=O)c4c(F)ccc(F)c4Cl)cccc3C2=O)C(=O)N1 (centres unmarked) [Compound 33, 2-chloro-N-((2-(2,6-dioxopiperidin-3-yl)-1-oxoisoindolin-4-yl)methyl)-3,6-difluorobenzamide]	> 10	< 1
O=C1CCC(N2Cc3c(CNC(=O)c4cccc(C(F)F)c4)cccc3C2=O)C(=O)N1 (centres unmarked) [Compound 23, 3-(difluoromethyl)-N-((2-(2,6-dioxopiperidin-3-yl)-1-oxoisoindolin-4-yl)methyl)benzamide]	< 1	1 to 10
O=C1CCC(N2Cc3c(CNC(=O)c4cccnc4)cccc3C2=O)C(=O)N1 (centres unmarked) [Compound 8, N-((2-(2,6-dioxopiperidin-3-yl)-1-oxoisoindolin-4-yl)methyl)nicotinamide]	> 10	–
O=C1CCC(N2Cc3c(CNC(=O)c4ccc(Cl)cc4Cl)cccc3C2=O)C(=O)N1 (centres unmarked) [Compound 28, 2,4-dichloro-N-((2-(2,6-dioxopiperidin-3-yl)-1-oxoisoindolin-4-yl)methyl)benzamide]	> 10	–
COc1cccc(C(=O)NCc2cccc3c2CN(C2CCC(=O)NC2=O)C3=O)c1 (centres unmarked) [Compound 1, N-((2-(2,6-dioxopiperidin-3-yl)-1-oxoisoindolin-4-yl)methyl)-3-methoxybenzamide]	< 1	1 to 10

Structure (SMILES)	EC50 (MOLM-13 cells) [µM]	IC50 (6XHis-CRBN-DDB1 protein) [µM]
O=C1CCC(N2Cc3c(CNC(=O)c4ccc(Cl)cc4)cccc3C2=O)C(=O)N1 (centres unmarked) [Compound 5, 4-chloro-N-((2-(2,6-dioxopiperidin-3-yl)-1-oxoisoindolin-4-yl)methyl)benzamide]	< 1	1 to 10
O=C1CCC(N2Cc3c(CNC(=O)c4ccccc4Nc4cccc(C(F)(F)F)c4)cccc3C2=O)C(=O)N1 (centres unmarked) [Compound 43, N-((2-(2,6-dioxopiperidin-3-yl)-1-oxoisoindolin-4-yl)methyl)-2-((3-(trifluoromethyl)phenyl)amino)benzamide]	< 1	1 to 10
O=C1CCC(N2Cc3c(CNC(=O)c4ccco4)cccc3C2=O)C(=O)N1 (centres unmarked) [Compound 2, N-((2-(2,6-dioxopiperidin-3-yl)-1-oxoisoindolin-4-yl)methyl)furan-2-carboxamide]	> 10	–
O=C1CCC(N2Cc3c(CNC(=O)c4ccccc4)cccc3C2=O)C(=O)N1 (centres unmarked) [Compound 10, N-((2-(2,6-dioxopiperidin-3-yl)-1-oxoisoindolin-4-yl)methyl)benzamide]	1 to 10	–
O=C1CCC(N2Cc3c(CNC(=O)c4ccc(F)cc4)cccc3C2=O)C(=O)N1 (centres unmarked) [Compound 7, N-((2-(2,6-dioxopiperidin-3-yl)-1-oxoisoindolin-4-yl)methyl)-4-fluorobenzamide]	< 1	1 to 10
O=C1CCC(N2Cc3c(CNC(=O)c4cccc(F)c4)cccc3C2=O)C(=O)N1 (centres unmarked) [Compound 9, N-((2-(2,6-dioxopiperidin-3-yl)-1-oxoisoindolin-4-yl)methyl)-3-fluorobenzamide]	< 1	1 to 10
N#Cc1cccc(C(=O)NCc2cccc3c2CN(C2CCC(=O)NC2=O)C3=O)c1 (centres unmarked) [Compound 26, 3-cyano-N-((2-(2,6-dioxopiperidin-3-yl)-1-oxoisoindolin-4-yl)methyl)benzamide]	< 1	< 1
O=C1CCC(N2Cc3c(CNC(=O)c4ccccc4F)cccc3C2=O)C(=O)N1 (centres unmarked) [Compound 31, N-((2-(2,6-dioxopiperidin-3-yl)-1-oxoisoindolin-4-yl)methyl)-2-fluorobenzamide]	> 10	1 to 10
O=C(Cc1ccc(O)cc1)NCc1cccc2c1CN(C1CCC(=O)NC1=O)C2=O (centres unmarked) [Compound 40, N-((2-(2,6-dioxopiperidin-3-yl)-1-oxoisoindolin-4-yl)methyl)-2-(4-hydroxyphenyl)acetamide]	< 1	< 1
O=C1CCC(N2Cc3c(CNC(=O)c4cc(C(F)(F)F)cc(Cl)c4F)cccc3C2=O)C(=O)N1 (centres unmarked) [Compound 35, 3-chloro-N-((2-(2,6-dioxopiperidin-3-yl)-1-oxoisoindolin-4-yl)methyl)-2-fluoro-5-(trifluoromethyl)benzamide]	> 10	< 1
O=C1CCC(N2Cc3c(CNC(=O)c4ccc(F)c(C(F)(F)F)c4)cccc3C2=O)C(=O)N1 (centres unmarked) [Compound 22, N-((2-(2,6-dioxopiperidin-3-yl)-1-oxoisoindolin-4-yl)methyl)-4-fluoro-3-(trifluoromethyl)benzamide]	< 1	< 1
Cc1ccc(C(=O)NCc2cccc3c2CN(C2CCC(=O)NC2=O)C3=O)cc1 (centres unmarked) [Compound 11, N-((2-(2,6-dioxopiperidin-3-yl)-1-oxoisoindolin-4-yl)methyl)-4-methylbenzamide]	1 to 10	–
O=C1CCC(N2Cc3c(CNC(=O)c4ccncc4)cccc3C2=O)C(=O)N1 (centres unmarked) [Compound 6, N-((2-(2,6-dioxopiperidin-3-yl)-1-oxoisoindolin-4-yl)methyl)isonicotinamide]	> 10	–
O=C1CCC(N2Cc3c(CNC(=O)c4ccc(Cl)c(Cl)c4)cccc3C2=O)C(=O)N1 (centres unmarked) [Compound 14, 3,4-dichloro-N-((2-(2,6-dioxopiperidin-3-yl)-1-oxoisoindolin-4-yl)methyl)benzamide]	< 1	–
O=C1CCC(N2Cc3c(CNC(=O)c4ccc(Cl)c(C(F)(F)F)c4)cccc3C2=O)C(=O)N1 (centres unmarked) [Compound 21, 4-chloro-N-((2-(2,6-dioxopiperidin-3-yl)-1-oxoisoindolin-4-yl)methyl)-3-(trifluoromethyl)benzamide]	< 1	–
